How the values were obtained:
[1] = biological target: human MDR1 (Homo sapiens, UniProt P08183); experiment: Vesicular transport assay, inside-out membrane vesicles expressing human MDR1; conditions: 10 min
Method: Inside-out membrane vesicles (5 mg protein/mL), prepared from insect cells expressing human multidrug resistance-associated protein (MRP) 2, MRP3, MRP4, breast cancer resistance protein (BCRP), bile salt export pump (BSEP), and multidrug resistance protein (MDR) one and rat Mrp2, Mrp4, Bcrp, and Bsep, and vesicles (5 mg protein/mL; prepared from the insect cells expressing no ABC transporter; serving as negative control) were obtained from Genomembrane (Kanazawa, Japan).
The test Danshen compounds at 100 µM final concentration were separately incubated with the membrane vesicles for 10 min. Buffer C (50 mM MOPS-tris, 70 mM KCl, 7.5 mM MgCl2, pH 7.0) was used for preincubation and incubation, while buffer D (40 mM MOPS-tris, 70 mM KCl, pH 7.0) was used for vesicle washing. The transport rate (pmol/mg protein/min) of the test Danshen compound was calculated using Equation (2): Transport=(CV×VV)/T/WV (2) where C V, V V, T, and W V represent concentration of the compound in vesicular lysates supernatant (μM), volume of the lysates (μL), incubation time (10 min), and amount of vesicle protein amount per well (0.05 mg), respectively. Differential transport of the test Danshen compound between ATP-containing vesicles and AMP-containing vesicles was defined as net transport ratio (TransportATP/TransportAMP ratio). […] All the incubation samples were analyzed by liquid chromatography/mass spectrometry.

[2] = biological target: T1, human OATP1B1 (Homo sapiens, UniProt Q9Y6L6); experiment: in vitro; conditions: for TransportTC/TransportMC ratio (net transport ratio): 10 min
T1 sequence (Q9Y6L6 1-691): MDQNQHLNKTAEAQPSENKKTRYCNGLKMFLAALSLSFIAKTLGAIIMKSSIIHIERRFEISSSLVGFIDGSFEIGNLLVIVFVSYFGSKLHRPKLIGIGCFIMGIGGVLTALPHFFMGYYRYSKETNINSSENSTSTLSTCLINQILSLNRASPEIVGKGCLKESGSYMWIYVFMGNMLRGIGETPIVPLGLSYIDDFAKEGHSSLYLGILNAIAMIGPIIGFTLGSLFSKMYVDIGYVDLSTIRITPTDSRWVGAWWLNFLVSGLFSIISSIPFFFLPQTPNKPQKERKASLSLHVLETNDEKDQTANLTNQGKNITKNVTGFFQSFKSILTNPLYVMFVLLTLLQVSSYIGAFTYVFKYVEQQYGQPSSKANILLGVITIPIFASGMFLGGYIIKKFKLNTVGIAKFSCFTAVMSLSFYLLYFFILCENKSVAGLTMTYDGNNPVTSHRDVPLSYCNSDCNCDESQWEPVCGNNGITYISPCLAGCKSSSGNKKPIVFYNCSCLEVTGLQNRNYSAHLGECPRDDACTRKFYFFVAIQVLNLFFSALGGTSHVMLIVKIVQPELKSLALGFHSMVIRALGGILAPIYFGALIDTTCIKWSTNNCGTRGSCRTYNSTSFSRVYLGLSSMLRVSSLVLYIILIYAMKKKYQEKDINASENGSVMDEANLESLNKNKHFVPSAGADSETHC
Method: (§1) Briefly, HEK-293 cells were grown, at 37°C and 5% CO2, in Dulbecco’s modified Eagle’s medium, which was fortified with 10% fetal bovine serum, 1% minimal essential medium nonessential amino acids, and 1% antibiotic-antimycotic solution. A day before transfection, cells were seeded onto 24-well poly-D-lysine-coated plates at a density of 2 × 10^5 cells per well. After incubation at 37°C and 5% CO2 for 24 h, the expression plasmid and the empty vector were introduced separately into the HEK293 cells with Lipofectamine 2000 transfection reagent (Invitrogen, Carlsbad, CA, United States), according to the manufacturer’s protocol to yield transporter-expressing cells and mock cells, respectively.
(§2) Transport studies were performed 48 h after the transfection. […] Differential uptake between the transfected cells and mock cells was defined as net transport ratio (TransportTC/TransportMC ratio), where TransportTC and TransportMC are the transport rates of a test Danshen compound into transfected and mock cells, respectively. […] The determination was performed under linear uptake conditions by incubation for 5 min. Table 1 summarizes the final concentrations of the test Danshen compounds for different transporters. All the incubation samples were analyzed by liquid chromatography/mass spectrometry.
(§3) GraFit software (version 5.0; Erithacus Software Ltd, Surrey, United Kingdom) was used to determine the K m and V max values by nonlinear regression analysis of initial transport rates as a function of substrate concentration.

[3] = biological target: T2, rat Oatp1b2 (Rattus norvegicus, UniProt Q9QZX8); experiment: in vitro; conditions: for TransportTC/TransportMC ratio (net transport ratio): 10 min
T2 sequence (Q9QZX8 1-687): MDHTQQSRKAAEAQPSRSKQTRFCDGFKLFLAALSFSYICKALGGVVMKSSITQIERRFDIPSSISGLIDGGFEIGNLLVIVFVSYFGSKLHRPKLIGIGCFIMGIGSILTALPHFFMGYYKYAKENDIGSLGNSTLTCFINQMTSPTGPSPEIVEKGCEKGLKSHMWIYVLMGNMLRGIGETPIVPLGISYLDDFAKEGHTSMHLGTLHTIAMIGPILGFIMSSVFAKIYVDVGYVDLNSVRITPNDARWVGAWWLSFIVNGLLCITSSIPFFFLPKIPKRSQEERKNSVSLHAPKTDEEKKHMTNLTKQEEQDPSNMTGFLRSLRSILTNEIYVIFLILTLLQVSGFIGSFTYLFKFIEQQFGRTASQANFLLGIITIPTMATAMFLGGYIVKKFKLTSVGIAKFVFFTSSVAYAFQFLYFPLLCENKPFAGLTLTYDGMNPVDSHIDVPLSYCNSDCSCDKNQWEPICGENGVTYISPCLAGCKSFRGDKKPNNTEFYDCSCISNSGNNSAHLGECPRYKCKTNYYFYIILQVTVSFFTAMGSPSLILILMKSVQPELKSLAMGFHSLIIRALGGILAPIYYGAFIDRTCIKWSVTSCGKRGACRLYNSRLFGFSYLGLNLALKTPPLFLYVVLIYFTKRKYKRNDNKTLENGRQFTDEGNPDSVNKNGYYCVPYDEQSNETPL
Method: as §1, §2, §3

[4] = rat hepatic sinusoidal uptake Oatp1b2, 5 min incubation, concentrations in Table 1
[5] = Danshen phenolic acid at 100 μM final concentration, human MDR1 vesicles
[6] = Danshen phenolic acid at 100 μM final concentration, human OATP1B1-transfected vs mock cells
[7] = Danshen phenolic acid at 100 μM final concentration, rat Oatp1b2-transfected vs mock cells
[8] = human hepatic sinusoidal uptake OATP1B1, 5 min incubation, concentrations in Table 1

Sequence of human MDR1 (P08183 whole entry): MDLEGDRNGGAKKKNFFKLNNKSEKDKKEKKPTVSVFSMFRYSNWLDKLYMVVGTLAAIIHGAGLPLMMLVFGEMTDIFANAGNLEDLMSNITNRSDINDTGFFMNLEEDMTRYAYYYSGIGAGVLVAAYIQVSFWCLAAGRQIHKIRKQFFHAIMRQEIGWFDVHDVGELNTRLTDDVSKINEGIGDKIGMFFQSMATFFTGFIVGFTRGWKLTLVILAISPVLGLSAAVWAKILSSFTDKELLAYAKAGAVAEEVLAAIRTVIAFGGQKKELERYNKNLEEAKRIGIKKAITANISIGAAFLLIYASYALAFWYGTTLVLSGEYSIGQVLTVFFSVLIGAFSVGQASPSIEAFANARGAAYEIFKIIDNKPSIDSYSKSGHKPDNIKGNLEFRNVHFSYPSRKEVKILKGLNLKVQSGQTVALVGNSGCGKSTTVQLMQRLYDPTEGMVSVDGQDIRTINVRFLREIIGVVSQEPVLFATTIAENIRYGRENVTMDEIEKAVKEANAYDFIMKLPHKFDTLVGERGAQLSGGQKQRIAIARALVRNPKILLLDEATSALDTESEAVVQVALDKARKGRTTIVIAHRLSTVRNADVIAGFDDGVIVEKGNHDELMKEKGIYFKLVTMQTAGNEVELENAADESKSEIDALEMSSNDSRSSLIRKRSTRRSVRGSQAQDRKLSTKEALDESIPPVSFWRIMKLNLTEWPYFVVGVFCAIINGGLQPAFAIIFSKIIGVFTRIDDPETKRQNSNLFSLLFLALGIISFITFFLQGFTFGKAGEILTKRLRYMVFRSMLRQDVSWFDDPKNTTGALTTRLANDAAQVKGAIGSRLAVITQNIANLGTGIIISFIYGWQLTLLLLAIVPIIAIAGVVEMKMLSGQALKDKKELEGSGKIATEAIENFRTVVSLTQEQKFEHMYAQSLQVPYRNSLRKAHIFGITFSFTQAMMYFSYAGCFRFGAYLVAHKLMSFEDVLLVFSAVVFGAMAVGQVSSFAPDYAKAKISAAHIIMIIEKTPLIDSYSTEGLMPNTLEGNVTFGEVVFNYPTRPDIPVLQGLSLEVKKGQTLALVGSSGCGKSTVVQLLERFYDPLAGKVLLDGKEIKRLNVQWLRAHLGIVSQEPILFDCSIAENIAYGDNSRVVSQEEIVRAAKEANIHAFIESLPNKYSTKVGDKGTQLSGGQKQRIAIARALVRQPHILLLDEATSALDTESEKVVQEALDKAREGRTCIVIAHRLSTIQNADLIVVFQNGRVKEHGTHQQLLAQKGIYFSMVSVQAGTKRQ

Compound	TransportATP/TransportAMP ratio (net transport ratio) ([1]; human, 100 μM, pH 7)	substrate of human OATP1B1 [2]	TransportTC/TransportMC ratio (net transport ratio) ([2]; human, 100 μM)	microsomal CLint ([2]; human, other cell line) [µL/min/mg]	substrate of rat Oatp1b2 [3]	K m [3, 4] [µM]	TransportTC/TransportMC ratio (net transport ratio) ([3]; rat, 100 μM)	microsomal CLint ([3]; rat, other cell line) [µL/min/mg]	TransportATP/TransportAMP ratio (net transport ratio) [1, 5]	TransportTC/TransportMC ratio (net transport ratio) [2, 6]	TransportTC/TransportMC ratio (net transport ratio) [3, 7]	microsomal CLint ([2]; human) [µL/min/mg]	K m [2, 8] [µM]	microsomal CLint ([3]; rat) [µL/min/mg]	CLint ([2]; human hepatic sinusoidal uptake OATP1B1) [μL/min/mg protein]	V max [2, 8] [pmol/min/mg protein]	CLint ([3]; rat hepatic sinusoidal uptake Oatp1b2) [μL/min/mg protein]	V max [3, 4] [pmol/min/mg protein]
O=C(/C=C/c1ccc(O)c(O)c1)O[C@H](Cc1ccc(O)c(O)c1)C(=O)O [Rosmarinic acid, rosmarinic acid]	1.04 ± 0.18	substrates	4.00 ± 0.43	0.07	substrates	2049 ± 418	17.0 ± 2.8	0.08										
O=C(O)c1ccc(O)c(O)c1 [Protocatechuic acid, protocatechuic acid]					neither protocatechuic acid nor tanshinol was a substrate				0.93 ± 0.04	0.83 ± 0.14	1.32 ± 0.45							
O=C(/C=C/c1ccc(O)c(O)c1/C=C/c1ccc(O)c(O)c1)O[C@H](Cc1ccc(O)c(O)c1)C(=O)O [Salvianolic acid A, salvianolic acid A]	1.26 ± 0.05	not a substrate	1.21 ± 0.33		substrate	50.5 ± 12.8	7.52 ± 1.31	0.38										
O=C(O)Cc1c(/C=C/C(=O)O[C@H](Cc2ccc(O)c(O)c2)C(=O)O)ccc(O)c1O [Salvianolic acid D, salvianolic acid D]		substrates			substrates	464 ± 62			0.92 ± 0.23	5.38 ± 0.83	16.0 ± 0.8	0.22	403 ± 85	1.23				
salvianolic acid B		substrates			substrates	20.5 ± 1.9			1.66 ± 0.12	5.16 ± 1.30	30.0 ± 0.6		58.9 ± 6.2		0.46	28.1 ± 1.2	0.87	17.7 ± 0.5
O=C(/C=C/c1ccc(O)c2c1[C@H](C(=O)O)[C@@H](c1ccc(O)c(O)c1)O2)O[C@H](Cc1ccc(O)c(O)c1)C(=O)O [Lithospermic acid, lithospermic acid]		substrates			substrates	91.3 ± 10.6			1.26 ± 0.09	3.99 ± 0.24	11.6 ± 0.7	0.06	428 ± 67	0.41				

— paper PMC9127186, “Molecular Basis Underlying Hepatobiliary and Renal Excretion of Phenolic Acids of Salvia miltiorrhiza Roots (Danshen)” (Frontiers in Pharmacology, 2022)
